Reference: US7229769B2, “Compositions and methods for detecting protease activity” (Illumina, Inc., priority 2005, dated 2007)
Residues, ends and D or L forms follow the SMILES beside them. *: point of attachment. Cbz = O=C(OCc1ccccc1)*; CH2F = FC*

Biological target: T1, Caspase-3 (Homo sapiens, UniProt P42574)
T1 sequence (P42574 29-175 limits assumed): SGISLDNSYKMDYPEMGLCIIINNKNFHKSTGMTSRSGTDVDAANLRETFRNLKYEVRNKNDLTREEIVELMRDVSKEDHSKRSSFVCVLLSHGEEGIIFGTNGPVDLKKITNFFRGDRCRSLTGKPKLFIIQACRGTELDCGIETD
T1 sequence (P42574 176-277 limits assumed): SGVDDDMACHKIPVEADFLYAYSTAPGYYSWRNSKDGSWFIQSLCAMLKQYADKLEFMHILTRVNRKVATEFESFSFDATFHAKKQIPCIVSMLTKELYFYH
Assay: Caspase-3 protease assay with protein-DNA conjugate substrate, streptavidin extraction, BeadArray detection; inhibition analysis
Assay type: biochemical
Conditions: end point assays, various concentrations of inhibitor vs. absence of inhibitor, FIG. 10
Method: Caspase-3 protease activity was carried out as follows. Briefly, the caspase-3 substrate included a protein moiety (peptide) having a caspase-3 amino acid recognition sequence. The protein moiety was attached at its amino terminus to a FAM-labeled DNA moiety and at its carboxy terminus to a biotin. The enzymatic reactions were performed in 30 to 60 microliter volumes having substrate concentrations in the range of 20 nM to 150 nM. The enzyme concentrations ranged from a few ng/ml to a few mg/ml. The assay buffer was 50 mM Tris-HCL, pH 8.0, 1 mM CaCl2, and 0.1% Tween-20 (v/v). The assay was carried out at 37° C. at varying times from 5 minutes to twelve hours.
Following incubation of the protease and substrate, the reaction mixture was extracted with streptavidin beads provided in molar excess for 15 minutes to remove uncleaved substrate (and cleaved protein fragments lacking the DNA moiety). Following removal of the streptavidin beads, the remaining mixture, containing FAM-labeled DNA fragments of the cleaved caspase-3 substrate, was diluted into GoldenGate™ hybridization buffer (Illumina, Inc., San Diego, Calif.) and hybridized onto a Sentrix® BeadArray Matrix for one hour at room temperature. The BeadArray matrix included nucleic acid probes that were complementary to the FAM-labeled DNA fragments. […]

## COC(=O)C[C@H](NC(=O)[C@H](C)NC(=O)[C@@H](NC(=O)OCc1ccccc1)C(C)C)C(=O)CF [ZVAD-FMK] (Cbz-Val-Ala-Asp(OMe)-CH2F)
  extent of inhibition of caspase-3 (mean signal intensity vs. time): as the concentration of inhibitor was increased the extent of inhibition was also increased
